Experimental data: US20210195900A1, “FUNGICIDAL MIXTURES FOR SOYBEAN DISEASES” (priority 2018, published 2021)

Legend:
[1] = test system: Fusarium virguliforme (SDS); experiment: Soybean seed treatment field trial, SDS score at stage R6; assay type: in vivo; details: 9 = no disease, control 6.1
Procedure: (§1) Soybean seeds treated with penthiopyrad, fluopyram, a combination thereof, at indicated application rates, along with appropriate controls were grown in multiple field locations under a variety of pest pressures including sudden death syndrome (SDS).
Level of tolerance to Fusarium virguliforme (SDS) in soybean varieties based on SDS score was measured in multiple locations across multiple years. SDS score was determined at or during the soybean developmental stage R6.
Scale for assigning tolerance to SDS scores:
Scale 9=clean, no disease
Scale 8=Up to 10% of plants showing mild symptoms (yellow, chlorotic spots)
Scale 7=Up to 20% plants showing mild symptoms
Scale 6=up to 30% plants showing medium symptoms (necrotic spots develop in the chlorotic areas; considered the lowest ‘acceptable’ score)
Scale 5=40% or more of plants showing medium symptoms
Scale 4=50% or more plants showing medium to heavy symptoms
3, 2, or 1=1/3, 2/3, or complete leaf drop, respectively.
(§2) For those evaluations shown herein, the Treatment value is greater than or less than CONTROL, and statistically significant at (P-value <0.10).

[2] = test system: soybeans; experiment: Soybean seed treatment field trial, grain yield (multi-year, multi-location); assay type: in vivo; details: control 60.4
Procedure: as §1, §2

Row | SMILES | SDS Score (1-9) ([1]; fluopyram 0.075 mg ai/seed) | SDS Score (1-9) ([1]; fluopyram 0.15 mg ai/seed) | Multi-year, Multi-loc Yield ([2]; fluopyram 0.075 mg ai/seed) [bu/acre] | Multi-year, Multi-loc Yield ([2]; fluopyram 0.15 mg ai/seed) [bu/acre] | SDS Score (1-9) ([1]; penthiopyrad 0.25 mg ai/seed) | Multi-year, Multi-loc Yield ([2]; penthiopyrad 0.25 mg ai/seed) [bu/acre]
1 | O=C(NCCc1ncc(C(F)(F)F)cc1Cl)c1ccccc1C(F)(F)F [Fluopyram, N-{2-[3-Chloro-5-(trifluoromethyl)-2-pyridinyl]ethyl}-2-(trifluoromethyl)benzamide] | 6.8 | 7.2 | 62.2 | 62.5 |  | 
2 | CC(C)CC(C)c1sccc1NC(=O)c1cn(C)nc1C(F)(F)F (stereo not drawn) [Penthiopyrad, N-[2-(1,3-dimethylbutyl)-3-thienyl]-1-methyl-3-(trifluoromethyl)-1H-pyrazole-4-carboxamide] |  |  |  |  | 6.7 | 62.6
